Measured values taken from patent publication US8809333B2, “Imidazole, pyrazole, and triazole derivatives useful as antibacterial agents” (Pfizer Inc., priority 2011, dated 2014).
Values after ≈ are worked out from the molar mass of the structure shown.

Assays:
[1] = target: T1, Pseudomonas aeruginosa LpxC enzyme (Pseudomonas aeruginosa, UniProt P47205); test: IC50 assay, LpxC enzyme from P. aeruginosa (BioTrove RapidFire mass spectrometry); format: biochemical; settings: P. aeruginosa LpxC enzyme 0.1 nM, 25° C., 1 hour, pH 8.0; read-out: PA: IC50
T1 construct: made in house; host or cells: E. coli
T1 sequence (P47205 1-303): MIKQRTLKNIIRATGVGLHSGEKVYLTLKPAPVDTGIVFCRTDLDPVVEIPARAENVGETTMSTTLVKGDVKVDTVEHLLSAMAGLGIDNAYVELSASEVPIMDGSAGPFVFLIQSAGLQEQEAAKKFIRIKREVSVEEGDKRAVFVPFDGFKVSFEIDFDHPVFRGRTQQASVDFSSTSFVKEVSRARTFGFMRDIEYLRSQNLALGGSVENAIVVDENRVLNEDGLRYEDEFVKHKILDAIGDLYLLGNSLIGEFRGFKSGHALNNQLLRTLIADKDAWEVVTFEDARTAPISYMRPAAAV
Description: In order to assess the compounds biological activity, selected in-vitro assays were conducted on selected compounds of Formula I. One of the assays measured the compounds ability to disrupt the synthesis of lipopolysaccharide, LPS, which is a component of the outer membrane of Gram-negative bacteria. Disruption of this synthesis is lethal to the bacteria. The assay determined the compound's ability to inhibit LpxC, which is the first enzyme in the biosynthetic pathway for LPS (measured as IC50). Additionally, MICs (minimal inhibitory concentrations) were determined for several bacteria. The specific protocols are described below:
A) IC50 Assay, LpxC Enzyme from P. Aeruginosa Labeled as PA LpxC Enzyme IC50):
At the end of 1 hour, 5 ul of 1 N HCl was added to stop the enzyme reaction, the plates were centrifuged, and then processed with the BioTrove Rapidfire HTMS Mass Spectrometry System. A no-enzyme control was used in calculating the IC50 values from the percent conversion values.

[2] = test system: Acinetobacter baumannii/haemolyticus: Multidrug-resistant clinical isolate (AB-3167); test: MIC determination (CLSI), AB-3167; format: cell-based; settings: Acinetobacter baumannii/haemolyticus multidrug-resistant clinical isolate; overnight incubation; lower of duplicate values; read-out: AB-3167 (MIC)
Description: (§1) The in vitro antibacterial activity of compounds described in the Examples was evaluated by minimum inhibitory concentration (MIC) testing according to Clinical and Laboratory Standards Institute (CLSI) Guidelines. See: Clinical and Laboratory Standards Institute. Methods for Dilution Antimicrobial Susceptibility Tests for Bacteria that Grow Aerobically; Approved Standard-Eighth Edition. CLSI document M7-A8 [ISBN 1-56238-689-1]. Clinical and Laboratory Standards Institute, 940 West Valley Road, Suite 1400, Wayne, Pa. 19087-1898 USA, 2006; also Clinical and Laboratory Standards Institute. Performance Standards for Antimicrobial Susceptibility Testing; Twentieth Informational Supplement. CLSI document M100-S20 [ISBN1-56238-716-2]. Clinical and Laboratory Standards Institute.
(§2) The MIC determination is a standard laboratory method for evaluating the antibacterial activity of a compound. The MIC represents the lowest drug concentration that inhibits visible growth of bacteria following overnight incubation. […] Typically, the drug concentration range is broken down into 2-fold increments (e.g. 0.06 μg/mL, 0.12 μg/mL. 0.25 μg/mL, 0.50 μg/mL, 1.0 μg/mL, etc.) and the various drug concentrations are all individually incubated overnight with approximately the same number of bacteria. The MIC is then determined by visually inspecting the drug effect at each concentration, and identifying the lowest drug concentration that has inhibited bacterial growth as compared to the drug free control. Typically, bacteria continue to grow at drug concentrations lower than the MIC and don't grow at concentrations at and above the MIC.
(§3) The MIC values described in Tables 2 and 3 below were derived from assays wherein each test compound was evaluated in duplicate. In cases where the duplicate values varied by 0-2-fold, the lower of the two values was reported below. Generally speaking, if the duplicate values varied by more than 2-fold, the assay was considered non-valid and was repeated until the variation between duplicate runs was ≦2-fold. In line with the CLSI guidelines referred to above, both control organisms and reference compounds were utilized in each MIC assay to provide proper quality control. MIC values generated with these control organisms and reference compounds were required to fall within a defined range for the assay to be considered valid and be included herein. Those skilled in the art will recognize that MIC values can and do vary from experiment to experiment. Generally speaking, it should be recognized that MIC values often vary +/−2-fold from experiment to experiment. While a single MIC is reported for each compound and each microorganism, the reader should not conclude that each compound was only tested once. Several of the compounds were subjected to multiple tests. The data reported in Tables 2 and 3 is reflective of the compounds relative activity and different MICs may have been generated on these occasions in line with the guidelines described above.
(§4) The following bacterial strains were used in these MIC determinations:
(1) Acinetobacter baumannii/haemolyticus: Multidrug-resistant clinical isolate labeled as AB-3167 in Table 5;

[3] = test system: Escherichia coli EC-1: VOGEL, mouse virulent; test: MIC determination (CLSI), EC-1; format: cell-based; settings: Escherichia coli, read-out: EC-1 (MIC)
Description: as §1, §2, §3, §4
(2) Escherichia coli EC-1: VOGEL, mouse virulent labeled as EC-1 in Table 5;

[4] = test system: Klebsiella pneumoniae: Ciprofloxacin-resistant isolate, expresses ESBL, clinical isolate (KP-3700); test: MIC determination (CLSI), KP-3700; format: cell-based; settings: overnight incubation, lower of duplicate values
Description: as §1, §2, §3, §4
(3) Klebsiella pneumoniae: Ciprofloxacin-resistant isolate, expresses extended-spectrum beta-lactamases (ESBL), clinical isolate, labeled as KP-3700 in Table 5.

[5] = test system: Pseudomonas aeruginosa UI-18: Wild-type (PA-7); test: MIC determination (CLSI), PA-7; format: cell-based; settings: Pseudomonas aeruginosa UI-18 wild-type; overnight incubation; lower of duplicate values; read-out: PA-7 (MIC)
Description: as §1, §2, §3, §4
(4) Pseudomonas aeruginosa UI-18: Wild-type, labeled as PA-7 in Table 5;

SMILES | IC50 [1] [nM] | MIC [2] [µg/mL] | MIC [3] [µg/mL] | KP-3700 (MIC) [4] [µg/mL] | MIC [5] [µg/mL]
CC(CCn1cc(-c2cccc(-c3cc[nH]n3)c2)cn1)(C(=O)NO)S(C)(=O)=O (centres unmarked) [Example 71, N-hydroxy-2-methyl-2-(methylsulfonyl)-4-{4-[3-(1H-pyrazol-3-yl)phenyl]-1H-pyrazol-1-yl}butanamide] | 5.12 | > 64 | > 64 | >64.0 | > 64
C[C@@](CCn1cc(-c2ccc(-c3ncco3)cc2)cn1)(C(=O)NO)S(C)(=O)=O [Example 12, (2R)—N-hydroxy-2-methyl-2-(methylsulfonyl)-4-{4-[4-(1,3-oxazol-2-yl)phenyl]-1H-pyrazol-1-yl}butanamide] | 0.963 |  |  |  | 
CC(CCn1cc(-c2ccc(-c3cc[nH]n3)cc2)cn1)(C(=O)NO)S(C)(=O)=O (centres unmarked) [Example 70, N-hydroxy-2-methyl-2-(methylsulfonyl)-4-{4-[4-(1H-pyrazol-3-yl)phenyl]-1H-pyrazol-1-yl}butanamide] | 4.11 | > 64 | 64 (≈ 159 µM) | >64.0 | 32 (≈ 79.3 µM)
CC(CCn1cc(-c2cn(Cc3ccccc3)cn2)cn1)(C(=O)NO)S(C)(=O)=O (centres unmarked) [Example 83, 4-[4-(1-benzyl-1H-imidazol-4-yl)-1H-pyrazol-1-yl]-N-hydroxy-2-methyl-2-(methylsulfonyl)butanamide] | > 100 |  |  |  | 
CC(CCn1cc(COc2ccc(C(F)(F)F)cc2)nn1)(C(=O)NO)S(C)(=O)=O (centres unmarked) [Example 33, N-hydroxy-2-methyl-2-(methylsulfonyl)-4-(4-{[4-(trifluoromethyl)phenoxy]methyl}-1H-1,2,3-triazol-1-yl)butanamide] | 9.6 | > 64 | 64 (≈ 147 µM) | >64.0 | 32 (≈ 73.3 µM)
CC(C)(C)c1ccccc1SCc1cn(CCC(C)(C(=O)NO)S(C)(=O)=O)nn1 (centres unmarked) [Example 28, 4-(4-{[(2-t-butylphenyl)sulfanyl]methyl}-1H-1,2,3-triazol-1-yl)-N-hydroxy-2-methyl-2-(methylsulfonyl)butanamide] | 174 | > 64 | > 64 | >64.0 | > 64
CC(CCn1cc(CSc2ccc(Cl)cc2)nn1)(C(=O)NO)S(C)(=O)=O (centres unmarked) [Example 29, 4-(4-{[(4-chlorophenyl)sulfanyl]methyl}-1H-1,2,3-triazol-1-yl)-N-hydroxy-2-methyl-2-(methylsulfonyl)butanamide] | 8.82 | > 64 | > 64 | >64.0 | 32 (≈ 76.4 µM)
CC(CCn1cc(-c2ccc3nc(N)sc3c2)cn1)(C(=O)NO)S(C)(=O)=O (centres unmarked) [Example 80, 4-[4-(2-amino-1,3-benzothiazol-6-yl)-1H-pyrazol-1-yl]-N-hydroxy-2-methyl-2-(methylsulfonyl)butanamide] | 75.8 | > 64 | > 64 | >64.0 | > 64
CC(CCn1cc(COc2cccc3ccccc23)nn1)(C(=O)NO)S(C)(=O)=O (centres unmarked) [Example 34, N-hydroxy-2-methyl-2-(methylsulfonyl)-4-{4-[(naphthalen-1-yloxy)methyl]-1H-1,2,3-triazol-1-yl}butanamide] | 26.3 | > 64 | > 64 | >64.0 | > 64
C[C@@](CCn1cc(-c2ccc(F)c(F)c2F)nn1)(C(=O)NO)S(C)(=O)=O [Example 18, (2R)-N-hydroxy-2-methyl-2-(methylsulfonyl)-4-[4-(2,3,4-trifluorophenyl)-1H-1,2,3-triazol-1-yl]butanamide] | 3.29 |  |  |  | 
COc1ccc(-c2cnn(CCC(C)(C(=O)NO)S(C)(=O)=O)c2)cc1OC (centres unmarked) [Example 65, 4-[4-(3,4-dimethoxyphenyl)-1H-pyrazol-1-yl]-N-hydroxy-2-methyl-2-(methylsulfonyl)butanamide] | 93.2 | > 64 | > 64 | >64.0 | > 64
CC(CCn1cc(-c2ccc(C#N)cc2)cn1)(C(=O)NO)S(C)(=O)=O (centres unmarked) [Example 47, 4-[4-(4-cyanophenyl)-1H-pyrazol-1-yl]-N-hydroxy-2-methyl-2-(methylsulfonyl)butanamide] | 1.15 | > 64 | 64 (≈ 177 µM) | >64.0 | 4 (≈ 11 µM)
Cc1ccc(-c2cnn(CCC(C)(C(=O)NO)S(C)(=O)=O)c2)cc1 (centres unmarked) [Example 41, N-hydroxy-2-methyl-4-[4-(4-methylphenyl)-1H-pyrazol-1-yl]-2-(methylsulfonyl)butanamide] | 1.26 | > 64 | 8 (≈ 22.8 µM) | 64 | 2 (≈ 5.69 µM)
CC(CCn1cc(-c2ccc(-c3cnco3)cc2)cn1)(C(=O)NO)S(C)(=O)=O (centres unmarked) [Example 72, N-hydroxy-2-methyl-2-(methylsulfonyl)-4-{4-[4-(1,3-oxazol-5-yl)phenyl]-1H-pyrazol-1-yl}butanamide] | 0.373 | > 64 | 4 (≈ 9.89 µM) | 16 | 2 (≈ 4.95 µM)
C[C@@](CCn1cc(C2=CCCCC2)cn1)(C(=O)NO)S(C)(=O)=O [Example 1, (2R)-4-[4-(cyclohex-1-en-1-yl)-1H-pyrazol-1-yl]-N-hydroxy-2-methyl-2-(methylsulfonyl)butanamide] |  | > 64 | 8 (≈ 23.4 µM) | 16 | 1 (≈ 2.93 µM)
CC(CCn1cc(-c2cn(-c3ccc(F)cc3)cn2)cn1)(C(=O)NO)S(C)(=O)=O (centres unmarked) [Example 89, 4-{4-[1-(4-fluorophenyl)-1H-imidazol-4-yl]-1H-pyrazol-1-yl}-N-hydroxy-2-methyl-2-(methylsulfonyl)butanamide] | > 100 |  |  |  | 
CC(CCn1cc(CSc2ccc(Br)cc2)nn1)(C(=O)NO)S(C)(=O)=O (centres unmarked) [Example 25, 4-(4-{[(4-bromophenyl)sulfanyl]methyl}-1H-1,2,3-triazol-1-yl)-N-hydroxy-2-methyl-2-(methylsulfonyl)butanamide] | 10.1 |  |  |  | 
C[C@@](CCn1cnc(-c2ccccc2)c1)(C(=O)NO)S(C)(=O)=O (stereo in doubt) [Example 13, N-hydroxy-2-methyl-2-(methylsulfonyl)-4-(4-phenyl-1H-imidazol-1-yl)butanamide] |  | > 64 | > 64 | >64.0 | > 64
